{"source": "paper PMC10159843", "about": "“Babesia duncani multi-omics identifies virulence factors and drug targets” (Nature Microbiology, 2023)", "tested_on": "BdATVR parasites", "type": "cell-based, Babesia duncani", "conditions": "IC50 BdATVR versus WA1", "data": [{"smiles": "O=C1C(O)=C([C@H]2CC[C@H](c3ccc(Cl)cc3)CC2)C(=O)c2ccccc21", "note": "[Atovaquone]", "values": [{"measurement": "fold resistance of BdATVR compared with WA1", "value": 15.2, "unit": "fold"}]}]}
